Measured values taken from publication PMC6934184, “Selective DNA-PKcs inhibition extends the therapeutic index of localized radiotherapy and chemotherapy” (The Journal of Clinical Investigation, 2019).

Molecular target: T1, PASK (Homo sapiens, UniProt Q96RG2)
T1 construct: purchased Thermo Fisher Scientific (Life Technologies) SelectScreen
Experiment: SelectScreen Z'LYTE
Assay type: biochemical
How it was run: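 SelectScreen broad panel; activity (Z'LYTE, Adapta) plus binding formats. ATP: Km app for CSF1R Z'LYTE; 10 for CAMK1 Adapta. Readout = % per kinase.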

T1 sequence (Q96RG2 whole entry): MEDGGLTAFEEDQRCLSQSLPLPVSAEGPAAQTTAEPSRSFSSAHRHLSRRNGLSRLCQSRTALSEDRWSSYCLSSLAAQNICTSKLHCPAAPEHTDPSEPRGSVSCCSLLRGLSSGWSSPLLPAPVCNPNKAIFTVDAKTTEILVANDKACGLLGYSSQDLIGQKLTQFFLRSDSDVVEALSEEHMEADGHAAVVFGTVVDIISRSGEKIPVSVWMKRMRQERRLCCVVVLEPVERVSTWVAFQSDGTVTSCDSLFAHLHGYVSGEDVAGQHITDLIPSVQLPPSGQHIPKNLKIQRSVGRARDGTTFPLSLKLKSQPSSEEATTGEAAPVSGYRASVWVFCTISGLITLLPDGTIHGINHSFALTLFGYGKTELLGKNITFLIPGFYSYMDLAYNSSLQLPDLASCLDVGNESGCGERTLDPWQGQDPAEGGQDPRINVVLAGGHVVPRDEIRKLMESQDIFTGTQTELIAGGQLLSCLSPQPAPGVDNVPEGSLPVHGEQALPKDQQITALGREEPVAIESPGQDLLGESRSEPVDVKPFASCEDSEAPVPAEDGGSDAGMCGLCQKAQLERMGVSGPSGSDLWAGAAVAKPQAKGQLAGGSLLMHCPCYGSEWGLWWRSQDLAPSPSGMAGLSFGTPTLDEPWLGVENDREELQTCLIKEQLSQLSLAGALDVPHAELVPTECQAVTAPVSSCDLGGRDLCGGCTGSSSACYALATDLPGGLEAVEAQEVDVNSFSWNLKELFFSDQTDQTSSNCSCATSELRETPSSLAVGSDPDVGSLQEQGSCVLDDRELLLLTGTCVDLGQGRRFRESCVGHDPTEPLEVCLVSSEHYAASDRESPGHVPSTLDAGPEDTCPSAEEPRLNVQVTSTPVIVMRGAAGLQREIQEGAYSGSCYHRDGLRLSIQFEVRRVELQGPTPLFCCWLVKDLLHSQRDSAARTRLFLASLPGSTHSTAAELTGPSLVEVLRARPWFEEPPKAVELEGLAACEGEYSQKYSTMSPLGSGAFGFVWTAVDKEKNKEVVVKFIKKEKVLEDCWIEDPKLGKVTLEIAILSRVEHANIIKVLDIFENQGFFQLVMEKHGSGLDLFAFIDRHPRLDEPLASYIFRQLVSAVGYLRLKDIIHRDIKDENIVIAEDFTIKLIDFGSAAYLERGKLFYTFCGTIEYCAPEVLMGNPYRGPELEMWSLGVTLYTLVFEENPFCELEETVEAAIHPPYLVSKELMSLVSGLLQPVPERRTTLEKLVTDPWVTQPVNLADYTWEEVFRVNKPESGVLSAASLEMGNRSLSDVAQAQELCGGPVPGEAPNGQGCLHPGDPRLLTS

## CN(C(=O)CN1CCOCC1)c1ccc2sc3c(-c4cccc5c(=O)cc(N6CC7CCC(C6)O7)oc45)cccc3c2c1 [NU5455]
  inhibition at 1 µM: 2.3%
